According to US20150352134A1, “COMPOSITION FOR TOPICAL SKIN APPLICATION CONTAINING GINSENOSIDE F2 DERIVED FROM HYDROPONIC GINSENG” (AMOREPACIFIC CORPORATION, priority 2012, published 2015):

Assays:
Assay type in all cases: cell-based
5α-reductase = molecular target: T1, 5α-reductase (Homo sapiens, UniProt P31213); assay: 5α-reductase activity inhibition, conversion of [14C]testosterone to DHT in HEK293-5α R2 cells; conditions: 2 hours
T1 construct: 3×FLAG; expressed in transfected cells; host or cells: HEK293
T1 sequence (P31213 1-254): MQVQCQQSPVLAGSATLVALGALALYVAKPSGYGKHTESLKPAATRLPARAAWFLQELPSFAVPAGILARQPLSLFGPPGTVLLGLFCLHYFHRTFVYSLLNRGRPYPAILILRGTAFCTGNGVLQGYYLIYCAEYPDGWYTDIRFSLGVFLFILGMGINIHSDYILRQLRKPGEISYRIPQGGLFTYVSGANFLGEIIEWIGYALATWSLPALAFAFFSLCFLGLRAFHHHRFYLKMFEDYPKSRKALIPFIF
Protocol: In order to evaluate the inhibitory effect on the activity of 5α-reductase, the conversion rate from [^14C]testosterone to [^14C]dihydrotestosterone (DHT) in HEK293-5α R2 cells is measured. P3×FLAG-CMV-5α R2 is transduced into HEK293 cells, which are cultured in a 24-well plate at a rate of 2.5×10^5 cells per well (Park et al., 2003, JDS. Vol. 31, pp. 191-98). The next day, the used culture medium is replaced with a new culture medium containing an enzyme substrate and an inhibitor. The substrate of the culture medium is 0.05 μCi [^14C]testosterone (Amersham Pharmacia Biotech, UK).
To evaluate the degree of 5α-reductase activity inhibition, the cells are treated with ginsenoside F2 and then cultured in a 5% CO2 incubator at 37° C. for 2 hours. In this regard, the negative control is the group not treated with ginsenoside F2, while the positive control is the group treated with finasteride. Subsequently, the culture medium is collected to extract steroids with 800 μl of ethylacetate, and the supernatant organic solvent phase is isolated and dried. The residue is dissolved in 50 μl of ethylacetate and developed on silica plastic sheet kieselgel 60 F254 using an ethylacetate-hexane (1:1) solvent.
The plastic sheet is dried out in the air and measured in regards to the abundance of isotope using a bath system. The dry plastic sheet together with an X-ray film is put in a bath cassette. After one week, the abundance of isotope of testosterone and dihydrotestosterone remaining on the film is measured to calculate the conversion rate and the inhibition rate according to the following mathematical formulas 5 and 6, respectively.

[1] = test system: prostaglandin generation in macrophagocytes collected from the abdominal cavity of a mouse; assay: Prostaglandin generation inhibition in LPS-treated macrophagocytes (ELISA); conditions: 100 μl of ginsenoside F2
Protocol: The inflammatory effect is evaluated in terms of the inhibitory effect on prostaglandin generation. Ginsenoside F2 is used to measure the effect on macrophagocytes. Firstly, macrophagocytes collected from the abdominal cavity of a mouse are treated with aspirin to have the final concentration of 500 µM, causing irreversible inhibition on the activity of cyclooxygenase (COX) remaining in the macrophagocytes. Then, 100 μl of the suspension is put in each well of a 96-well culture plate and cultured in an incubator under the conditions of 5% CO2 and 37° C. for 2 hours to immobilize the macrophagocytes on the surface of the container. Subsequently, the immobilized macrophagocytes are washed with PBS three times and used in the inflammatory improvement test. […] Then, the macrophagocytes are treated with 100 μl of ginsenoside F2, and the isolated prostaglandin is quantitatively analyzed by way of ELISA (Enzyme-Linked ImmunoSorbent Assey).
In this regard, the prostaglandin generation inhibitory activity of the ginsenoside F2 is determined by the reduced amount of prostaglandin generated in the LPS-treated group in comparison with the case of the control in terms of the percentage amount of the prostaglandin decreased by treatment with LPS and the sample, while the difference in the amount of the generated prostaglandin between the LPS-treated group and the control group is set to 100%.

Aspergillus niger = assay: Antibacterial effect, MIC; conditions: 48 hours, 25° C.
Protocol: (§1) The antibacterial testing is carried out in order to evaluate the antibacterial effect of ginsenoside F2. The detailed testing method is as follows. Staphylococcus aureus, Escherichia coli, and pseudomonas aeruginosa strains are cultured with a tryptic soy broth, and candida albicans and aspergillus niger strains are cultured with sabouraud dextrose broth. The test bacterial liquid is the 1/100 (1/10 for candida albicans strain) diluted solution of the culture medium diluted with each medium. For aspergillus niger, the test bacterial liquid is the spore suspension prepared to 2×10^8 cfu/ml. 0.15 ml of the test bacterial liquid is added to 15 ml of each culture medium to prepare a well-blended diluted solution. 16 μl of the sample is put into each well on the first row of a 96-well plate, and 184 μl of the diluted solution is added to each well on the first row. Then, 100 μl of the diluted solution is put into each of the other wells. The mixed solution of the first row is sufficiently stirred, and 100 μl of the mixed solution is added to each well on the second row of the 96-well plate and stirred sufficiently. 100 μl of the mixed solution on the second row is taken and added to each well on the third row to achieve two-fold serial dilution. Straphylococcus aureus, Escherichia coli, and Pseudomonas aeruginosa strains are cultured in a thermostat container at 32°, and Candida albicans and Aspergillus niger strains are cultured in a thermostat container at 25° C. 48 hours later, the cell proliferation is determined by the turbidity index and microscopic observation to determine the minimum inhibitory concentration (MIC).

Candida albicans = assay: Antibacterial effect, MIC; conditions: 48 hours, 25° C.
Protocol: as §1

Escherichia coli = assay: Antibacterial effect, MIC; conditions: 48 hours, 32°
Protocol: as §1

Pseudomonas aeruginosa = assay: Antibacterial effect, MIC; conditions: 48 hours, 32°
Protocol: as §1

CC(C)=CCC[C@](C)(O[C@@H]1O[C@H](CO)[C@@H](O)[C@H](O)[C@H]1O)[C@H]1CC[C@]2(C)[C@@H]1[C@H](O)C[C@@H]1[C@@]3(C)CC[C@H](O[C@@H]4O[C@H](CO)[C@@H](O)[C@H](O)[C@H]4O)C(C)(C)[C@@H]3CC[C@]12C [Ginsenoside F2, ginsenoside F2]
Inhibition rate (%) (5α-reductase; 5α-reductase activity): 59.7% | Conversion rate (%) (5α-reductase; testosterone to dihydrotestosterone): 15.4% | prostaglandin generation (Blank = 100%) [1]: 24.2% | MIC (%) Aspergillus niger (Aspergillus niger): >2% | MIC (%) Candida albicans (Candida albicans): >4% | MIC (%) Escherichia coli (Escherichia coli): 0.13% | MIC (%) Pseudomonas aeruginosa (Pseudomonas aeruginosa): 0.09%
